Entries after “also recorded” stand apart in the source; their conditions may differ. Non-standard residues stand in square brackets, D forms with d. No end group written: not given here. pS = N[C@@H](COP(=O)(O)O)C(=O)O
How the values were obtained:
[1] = tested on: BAD phosphorylation; test: BAD phosphorylation (test system not specified)
From the text: Similarly, inhibitors and activators of protein kinases are known and can be used as therapeutic agents (see, e.g., Levitski, 1994). […] It is preferred that the inhibitors and activators have selective actions on the kinase(s) acting upon the BAD, or fragment of BAD, of the present invention. […] Alternatively, in vivo testing could be done using a number of experimental approaches, and one example, as reported herein, utilizes the endogenous phosphorylation of BAD upon re-addition of IL-3 after withdrawal for two hours. Such standard testing systems could be used to test candidate compounds as inhibitors or activators of BAD phosphorylation.

[2] = tested on: BAD Ser155 phosphorylation in HeLa cells; test: BAD phosphorylation in HeLa cells (western blot band-shift / anti-phospho-Ser155 antibody); type: cell-based, human; details: for induction of band-shift (Ser155 phosphorylation) of HA-BAD S112A/S136A: transfected HeLa cells treated with the agent; for Ser155 phosphorylation following growth factor stimulation: results not shown
Protocol: A mammalian expression vector encoding mutant HA-BAD S155A, derived from the shorter murine BAD of SEQ ID NO:3, was constructed. HA-BAD S155A has an amino acid sequence wherein the serine at a position corresponding to Ser155 is substituted with alanine. A western blot was performed on WCL prepared from cells expressing the shorter murine BAD (SEQ ID NO:3), HA-BAD S112A, HA-BAD S136A, or HA-BAD S155A, and probed with anti-HA antibody.
A western blot analysis, probed with anti-HA antibody, was performed on lysates produced from the Forskolin treated and untreated (control) cells to determine whether Forskolin could induce the phosphorylation BAD or mutant BAD.
HeLa cells transiently expressing HA-BAD, HA-BAD S155A, HA-BAD S112A/S136A, or HA-BAD S112A/S136A/S155A were treated with Forskolin or a buffer control.
The HA-BAD S112A/S136A double mutant was transiently expressed in HeLa cells, and transfected cell cultures were treated with each of the GPCR ligands, individually and as a group. A western blot analysis, probed with anti-HA antibody, was performed on lysates produced from the treated and untreated (negative control) cells. […] Forskolin (FK) and no treatment (−) were positive and negative controls, respectively (FIG. 6(a), […], respectively).
Non-transfected HeLa cells were treated with Forskolin or L-epinephrine, followed by western blot analysis of cell lysates using anti-BAD antibodies.
Transformants were treated with L-epinephrine, then lysed and subjected to anti-HA western blot analysis.
(§1) To further test whether phosphorylation of Ser155 is dependent on the PI 3-kinase/Akt pathway, HeLa cells were transfected with the mutant HA-BAD S155A and pretreated with Wortmannin, an inhibitor of PI 3-kinase. These cells were then stimulated with epidermal growth factor (EGF), lysed and analyzed by western blot analysis.
For immunoprecipitation of all HA-BAD species, 1 μg of the anti-HA antibody was added to the cell lysates, and incubated at 4° C. for one hour. Protein G agarose (Pierce) was then added (50 μl/fraction of 50% slurry) and followed by a one hour incubation at 4° C. Beads were washed with RIPA buffer, boiled in loading buffer (2% SDS, 10% glycerol, 5% β-ME, 60 mM Tris, pH 6.8, 0.002% Bromophenol Blue) and loaded onto polyacrylamide gels. After electrophoresis, proteins were transferred to nitrocellulose membranes, and blots blocked in western wash buffer (40 mM Tris, pH 8.0, 150 mM NaCl, 0.2% NP-40) with 5% BSA for one hour at room temperature. Blots were incubated with primary antibody diluted in western wash buffer with 3% BSA at room temperature for 1–2 hours, washed with western wash buffer and incubated with secondary HRP-coupled antibody diluted in western wash buffer with 1.5% BSA, and washed extensively. Polypeptides were detected with the ECL chemiluminescence according to the manufacturers instructions (Amersham).

[3] = tested on: BAD phosphorylation in Rat-1 cells; test: BAD phosphorylation in Rat-1 cells (western blot band-shift / anti-phospho-Ser155 antibody); type: cell-based; details: for induction of band-shift of HA-BAD S112A/S136A: transfected Rat-1 fibroblasts
From the text: In the absence of a phospho-Ser155 antibody, it was difficult to conclude that this band-shift was solely the result of the phosphorylation of Ser155. However, it appeared that this response was at least primarily due to the phosphorylation at this site. This was based on the combined evidence, both in vitro and in cells, as described above (FIGS. 1, 2 and 4–7) and the fact that Ser155 is the only site of BAD homologous to the substrate consensus sequence of PKA.
Whether the BAD Ser155 kinase, PKA, is also activated by growth factors, and if so, whether such activation is PI 3-kinase dependent, was investigated. […] Cell lysates were analyzed via western blot analysis, probed using anti-HA antibody. […] However, the magnitude of phosphorylation was weaker and may be more transient, than the effect of Forskolin (FIG. 9(a)). Of note, Ser155 phosphorylation following IGF-1, EGF, or PDGF stimulation was not detected in HeLa cells (results not shown).
It has been documented that Akt kinase activity, the serine kinase shown to phosphorylate BAD Ser136, is induced by growth factors and is dependent on PI 3-kinase activation (Datta et al., 1997; del Peso et al., 1997). In related experiments, Rat-1 cells were pretreated with either the PKA inhibitor H89, or the PI 3-kinase inhibitor Wortmannin (available, e.g., from Sigma, St. Louis, Mo.), followed by stimulation with Forskolin (also available from Sigma) or PDGF. […] This indicated the shift was PKA dependent (FIG. 9(b), lower panel, compare lanes 5 and 6). […] It therefore presumably had no effect on PDGF-induced activation of PI 3-kinase.
To examine whether endogenous BAD is phosphorylated on Ser155 in response to growth factors, serum-starved Rat-1 fibroblasts were stimulated with PDGF. Whole cell lysates were prepared and endogenous BAD was immunoprecipitated. Proteins were separated by SDS-PAGE, and Ser155 phosphorylation was analyzed by Western blot using the phospho-S155 antibody and an anti-BAD antibody.

[4] = tested on: Akt; test: Akt activation in HeLa cells (anti-phospho-S473 Akt western blot); type: cell-based, human; details: serum-starved HeLa cells, pretreatment then EGF
From the text: FIG. 10(B) is a series of western blots. Serum-starved HeLa cells expressing HA-BAD S155A, were pretreated with a buffer control (lanes 1 and 2), AG1478 (“AG”) (lane 3), Wortmannin (“Wm”) (lane 4), or H89 (lane 5). The cell cultures were then stimulated with a buffer control (lane 1) or EGF (lanes 2–5). Whole cell lysates were made from the cultures and the proteins were separated by SDS-PAGE. Blots were probed with either an anti-activated EGF receptor antibody (“activated EGFR”) (panel A), an anti-phospho-S473 Akt antibody (“pS473 Akt”) (panel B), or an anti-phospho-S155 BAD antibody (“pS155 BAD”) (panel D). Reblots were probed with either an anti-Akt antibody (“Akt”) (panel C) or an anti-HA BAD antibody (“HA-BAD”) (panel E).
as §1

[5] = molecular target: GST-Bcl-XL (Homo sapiens, UniProt Q07817); test: In vitro competition binding assay (BH3 peptides blocking GST-Bcl-XL binding to immobilized BAK BH3 peptide, ELISA)
Protocol: FIG. 3(B) is a graphical representation of the results of an in vitro competition binding assay. Recombinant GST-Bcl-XL was incubated with a BAD BH3 peptide (residues 143–168 of SEQ ID NO: 2) phosphorylated on Ser155 (“BAD BH3-P”), a BAD BH3 peptide (residues 143–168 of SEQ ID NO: 2) unphosphorylated on Ser155 (“BAD BH3”), or a BAK BH3 peptide (residues 71–89; residues 1–20 of SEQ ID NO: 5) as a positive control, at the indicated concentrations. The reaction mixtures were then added to microtiter plates pre-coated with BAK BH3 peptide. The amount of bound GST-Bcl-XL was determined by ELISA using an anti-GST primary antibody and a horse-radish peroxidase-conjugated anti-mouse IgG secondary antibody with ABTS as substrate.
Whether the addition of a phosphate group on BAD Ser155 interferes with this interaction was tested by measuring the affinity of BAD BH3 peptides for Bcl-XL in an in vitro competition binding assay. Synthetic BAD BH3 peptide encompassing BAD residues 143 to 168, was incubated with recombinant GST-Bcl-XL at the indicated concentrations (FIG. 3(b)). The affinity of the BAD BH3 peptide for GST-Bcl-XL was measured as the ability of the peptide to block subsequent binding of GST-Bcl-XL to a BAK BH3 peptide when the reacted mixture was added to a microtiter plate pre-immobilized with a BAK BH3 peptide, as detected by ELISA (triplicate samples, +/−standard deviation). […]

Chain of GST-Bcl-XL (Q07817 whole entry, the tested form may be a part): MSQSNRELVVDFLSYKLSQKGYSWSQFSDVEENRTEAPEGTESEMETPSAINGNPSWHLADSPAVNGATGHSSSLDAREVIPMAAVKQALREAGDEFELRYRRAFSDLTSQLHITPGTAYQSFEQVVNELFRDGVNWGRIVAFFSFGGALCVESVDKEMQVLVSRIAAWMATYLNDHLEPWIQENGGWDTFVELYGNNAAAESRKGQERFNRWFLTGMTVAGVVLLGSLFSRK

CN[C@@H]1C[C@H]2O[C@@](C)([C@@H]1OC)n1c3ccccc3c3c4c(c5c6ccccc6n2c5c31)C(=O)NC4 [staurosporin]
effect on BAD phosphorylation [1]: inhibits BAD phosphorylation

ACTH: adrenocorticotropic hormone, GPCR ligand (SYSMEHFRWGKPVGKKRRPVKVYPNGAEDESAEAFPLEF; Corticotropin; UniProt P01189 138-176, looked up)
induction of band-shift (Ser155 phosphorylation) of HA-BAD S112A/S136A [2]: neither TK (FIG. 6(a), lane 3) nor ACTH (FIG. 6(b), lane 5) alone induces a similar band-shift

CCCCCCCCCCCCCC(=O)O[C@@H]1[C@@H](C)[C@@]2(O)[C@@H](C=C(CO)C[C@]3(O)C(=O)C(C)=C[C@@H]23)[C@@H]2C(C)(C)[C@]12OC(C)=O [PMA]
effect on BAD phosphorylation [1]: promotes BAD phosphorylation

IGF-1: insulin-like growth factor 1
Ser155 phosphorylation following growth factor stimulation ([2]; HeLa cells): not detected | induction of band-shift of HA-BAD S112A/S136A [3]: induced a band-shift

COc1cc2ncnc(Nc3cccc(Cl)c3)c2cc1OC [AG1478, reference compound]
inhibition of EGF-induced phosphorylation of BAD on Ser155 ([2]; serum-starved HeLa cells transfected with HA-BAD S155A (so in the source), pretreatment then EGF, anti-phospho-S155 blot): blocked the phosphorylation of both | effect on EGF-induced activation/phosphorylation of endogenous Akt [4]: blocked the phosphorylation of both

BAD BH3-P: Synthetic BAD BH3 peptide, residues 143–168 of SEQ ID NO: 2, phosphorylated on Ser155 (AAQRYGRELRRM[pS]DEFEGSFKGLPRP; listed as Mus musculus)
reduction of affinity for Bcl-XL ([5]; BAD BH3 peptide phosphorylated on Ser155): greater than 100 fold

PDGF
Ser155 phosphorylation following growth factor stimulation ([2]; HeLa cells): not detected | induction of phosphorylation of endogenous BAD on Ser155 ([3]; serum-starved Rat-1 fibroblasts, phospho-S155 antibody): induced the phosphorylation of endogenous BAD on Ser155 | induction of band-shift of HA-BAD S112A/S136A [3]: induced a band-shift

CNC[C@H](O)c1ccc(O)c(O)c1 [L-epinephrine, reference compound]
induction of band-shift of endogenous BAD ([2]; non-transfected HeLa cells): resulted in a new band-shift | induction of band-shift (Ser155 phosphorylation) of HA-BAD S112A/S136A [2]: induced a significant band-shift; also recorded: resulted in the phosphorylation of this site

BAD S112A: mutant of shorter murine BAD, serine corresponding to Ser112 substituted with alanine; HA- or GST-tagged
band-shift (phosphorylation) of expressed BAD construct in response to L-epinephrine ([2]; HeLa cells): significant band-shift

BAD BH3: Synthetic BAD BH3 peptide, residues 143–168 of SEQ ID NO: 2, unphosphorylated on Ser155 (AAQRYGRELRRMSDEFEGSFKGLPRP; listed as Mus musculus)
affinity of BAD BH3 peptide for Bcl-XL ([5]; ability to block binding of GST-Bcl-XL to plate-bound BAK BH3 peptide, compared with BAK BH3 control peptide): affinity similar to the BAK BH3 control peptide
